Columns and labels:
CYP3A4 = CYP3A4 (Homo sapiens, UniProt P08684); assay: CYP substrate assessment, CYP3A4
Male Sprague-Dawley rats [1] = assay: Vogel conflict procedure; format: in vivo; details: i.p. 30 minutes prior; KRM-II-81 significant at 10 mg/kg; chlordiazepoxide 20 mg/kg
Procedure: FIG. 10 is a graph of the concentration of KRM-II-81 versus percent of control for KRM-II-81 analyzed in the Vogel conflict procedure. After a baseline was established using a vehicle (1% 2-hydroxyethyl cellulose), male Sprague-Dawley rats (n=6-8) were dosed i.p. with either KRM-II-81 (3, 10, 30, or 60 mg/kg) or chlordiazepoxide (20 mg/kg) 30 minutes prior to testing. Results were analyzed using ANOVA (Dunnett's test: *P<0.05; Student t-test: **P<0.05).
Subjects are withheld from water prior to testing. Once given water during testing, they will either be unpunished, where they are free to drink without consequence, or punished, where a small electrical shock is applied after every 20th lick. In vehicle punished, is it is expected that the rats hesitate from drinking due to the anxiousness of being shocked. When given an anxiolytic, the […] will continue to drink water despite the electrical shock.
Experiments were conducted as described in the protocol of Alt et al. (Neuropharmacology 2007, 52, 1482-1487). […]
Apparatus. […] All events were controlled and licking data was recorded by a Compaq computer running MED-PC Version IV (Med Associates Inc., Georgia, Vt., USA).
Sipper tube training. […] The six minutes was broken into two components, the first three minutes was recorded as the unpunished component and the second three minutes were recorded as the punished component. […]

Male Sprague-Dawley rats [2] = assay: von Frey filament test in spinal nerve ligated (SNL) rats; format: in vivo
Procedure: FIG. 11 is a graph of time versus withdrawal threshold for KRM-II-81, Gabapentin, and vehicle, showing the effect of KRM-II-81 on antihyperalgesia in the von Frey filament assay. Male Sprague-Dawley rats (n=5) were dosed i.p. either vehicle, KRM-II-81 (30 mg/kg), or gabapentin (50 mg/kg) and tested in the von Frey filament assay after undergoing SNL 90 days prior. Results were analyzed using ANOVA (Dunnett's test: *P<0.05).
The von Frey filament test is used to test for antihyperalgesia, or an increased sensitivity to pain. […] The von Frey filaments are used to apply pressure to the forelimbs of test subjects at set amounts. When pressure becomes too great, the forelimb is withdrawn and the amount of force applied recorded. The spinal nerve ligation induced hyperalgesia, reducing the amount of force a limb can take before being withdrawn.
Test compounds were given to test the effectiveness of combating the hyperalgesic effect of SNL. Male Sprague-Dawley rats went through SNL at least 90 days prior to the von Frey testing. Rats were first tested without given an injection to determine a baseline. Following baseline establishment, rats (n=5 for all groups) were dosed i.p. with vehicle (1% carboxymethyl cellulose), KRM-II-81 (30 mg/kg), or gabapentin (50 mg/kg). Subjects were then tested every hour for four hours to determine the antihyperalgesic effect of the test compounds. For testing, pressure using von Frey filaments was applied to the forelimb of the rat. Pressure was increased until the limb was withdrawn, and the amount of pressure was recorded.

Chain of CYP3A4 (P08684 whole entry): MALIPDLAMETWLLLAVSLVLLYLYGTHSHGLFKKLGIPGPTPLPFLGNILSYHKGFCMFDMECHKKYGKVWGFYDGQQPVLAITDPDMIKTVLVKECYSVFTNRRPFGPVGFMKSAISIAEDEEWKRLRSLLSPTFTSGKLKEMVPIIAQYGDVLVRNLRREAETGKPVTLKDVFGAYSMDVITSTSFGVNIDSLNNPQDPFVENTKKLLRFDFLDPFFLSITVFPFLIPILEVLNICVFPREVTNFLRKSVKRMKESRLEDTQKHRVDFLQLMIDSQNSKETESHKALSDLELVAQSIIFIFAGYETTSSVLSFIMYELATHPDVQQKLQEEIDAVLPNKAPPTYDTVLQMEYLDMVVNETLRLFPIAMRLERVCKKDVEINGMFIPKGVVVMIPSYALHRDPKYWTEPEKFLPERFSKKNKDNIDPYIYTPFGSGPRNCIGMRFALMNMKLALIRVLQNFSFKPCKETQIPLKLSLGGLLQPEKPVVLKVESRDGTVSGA

C#Cc1ccc2c(c1)C(c1ccccn1)=NCc1c(-c3cnco3)ncn1-2 [KRM-II-81, 5-(8-Ethynyl-6-(pyridin-2-yl)-4H-benzo[f]imidazo[1,5-a][1,4]diazepin-3-yl)oxazole]
substrate of CYP3A4 (CYP3A4): not found to be a substrate
punished licking compared to control (Male Sprague-Dawley rats [1]): significant increase in punished licking
statistical significance of antihyperalgesic effect (Male Sprague-Dawley rats [2]; KRM-II-81 30 mg/kg at one hour, gabapentin 50 mg/kg): able to reach significance
antihyperalgesic activity, von Frey after SNL (Male Sprague-Dawley rats [2]; KRM-II-81 30 mg/kg, gabapentin 50 mg/kg i.p.): active as antihyperalgesics
pain threshold (force before removing paw) (Male Sprague-Dawley rats [2]; from 1-2 hours, vehicle ˜5 g): ~12 g
